Consider one compound from patent US12030897B2, “Pyrrolo[2,1-f][1,2,4]triazine derivatives serving as selective HER2 inhibitors and application thereof” (MEDSHINE DISCOVERY INC., priority 2018, dated 2024).

For one series, the system named is BT-474 cell. The experiment in a line: Cell proliferation inhibitory activity, Cell-Titer-Glo, BT-474. The class given is cell-based. The settings on record: Homo sapiens, BT-474, 72 h; 3 days incubation. The source says:
(§1) Experiment object: to detect the inhibitory activity of the tested compound on cell proliferation.
(§2) Experimental principle: the luciferase in the Cell-Titer-Glo reagent uses luciferin, oxygen and ATP as reaction substrates to produce oxyluciferin and release energy in the form of light. Since the luciferase reaction requires ATP, the total amount of light produced by the reaction is proportional to the total amount of ATP that reflects cell viability.
(§3) Experimental Materials: • cell lines: NCI-N87 cell line (ATCC-CRL-5822); BT-474 cell line (ATCC-HTB-20) • Cell culture medium: RPMI 1640 medium (Invitrogen #22400-105; 10% serum Invitrogen #10090148; L-glutamine 1×, Gibco #25030-081; double antibody Hyclone #SV30010) • CellTiter-Glo® luminescence cell viability detection kit (Promega #G7573) • 384-well cell culture plate (Greiner #781090) • Compound plate (LABCYTE #LP-0200) • CO2 incubator (Thermo #371) • Vi-cell cell counter (Beckman Coulter) • Pipette (Eppendorf) • Pipette (Greiner) • Pipetting gun (Eppendorf) • Multifunctional microplate reader (Envision Reader) • ECHO Liquid-handling workstation (Labcyte-ECHO555)
(§4) The cells were inoculated in a 384-well plate with a density of 1000 cells per well and 25 μL per well. The edge wells were not inoculated with cells, and was supplemented with 25 μL of phosphate buffer.
(§5) The compound was added to the plate with 9 μL per well.
(§6) (2) The compound was diluted with ECHO liquid-handling workstation, and each well of the cell plate was added with 125 nL of compound. Each well of the cell wells of columns 2 and 23 was added with 125 nL of DMSO, and each well of the Media wells of columns 1 and 24 was added with 125 nL of DMSO.
(§7) (3) Each well of the cell plate was supplemented with 25 μL of culture medium, and the final volume in each well of the cell plate was 50 μL. The concentration of the compound was 10 μM, which was subjected to 3 fold dilution to obtain 10 concentrations. Each concentration was duplicated in left and right wells, and the final DMSO concentration was 0.25%.
(§8) 2.3 After adding the compound, it was centrifuged at 1000 rpm for 1 min. The cell plate was placed in a 37° C., 5% CO2 incubator for 3 days.
(§9) The cell plate was taken from the incubator and equilibrated at room temperature for 30 min. 25 μL of Cell-Titer-Glo reagent was added to each well, shaken for 1 min to make it thoroughly mixed, and centrifuged at 1000 rpm for 1 min. After 10 min, the plate was read on PerkinElmer Envision, and the […] reading time was set to 0.2 seconds.

For a further series, the target named is CYP2C19 (Homo sapiens (Human), UniProt P33261). As to the kind of experiment: Inhibition of human liver microsomal cytochrome P450 isoenzyme CYP2C19. The class given is in vitro ADME. The settings on record: human liver microsomes. The procedure: (§10) The object of this study was to evaluate the effect of Example 4 on the activities of five isoenzymes (CYP1A2, CYP2C9, CYP2C19, CYP2D6 and CYP3A4) of human liver microsomal cytochrome P450 (CYP) using an in vitro test system. The specific probe substrates of CYP450 isozymes were incubated with human liver microsomes and different concentrations of Example 4, and reduced nicotinamide adenine dinucleotide phosphate (NADPH) was added to initiate the reaction. After the reaction was completed, the samples were treated, and liquid chromatography tandem mass spectrometry (LC/MS/MS) was used to detect the metabolites produced by specific substrates.
Chain of CYP2C19 (P33261 whole entry): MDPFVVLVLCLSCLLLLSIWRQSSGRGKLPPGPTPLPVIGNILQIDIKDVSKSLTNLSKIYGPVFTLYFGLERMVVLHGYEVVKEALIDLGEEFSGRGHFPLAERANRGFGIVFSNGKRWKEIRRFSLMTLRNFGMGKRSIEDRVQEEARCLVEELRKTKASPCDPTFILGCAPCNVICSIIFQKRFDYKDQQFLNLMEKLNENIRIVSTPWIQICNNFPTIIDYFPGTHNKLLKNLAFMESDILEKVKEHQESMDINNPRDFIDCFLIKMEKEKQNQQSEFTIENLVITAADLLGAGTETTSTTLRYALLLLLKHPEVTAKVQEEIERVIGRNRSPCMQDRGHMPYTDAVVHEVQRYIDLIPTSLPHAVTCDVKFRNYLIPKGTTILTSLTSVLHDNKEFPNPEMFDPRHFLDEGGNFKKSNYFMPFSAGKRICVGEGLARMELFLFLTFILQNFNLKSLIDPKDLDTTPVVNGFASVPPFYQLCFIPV

For another series, the system named is NCI-N87 cell. The experiment in a line: Cell proliferation inhibitory activity, Cell-Titer-Glo, NCI-N87. The class given is cell-based, human. The conditions noted are these: Homo sapiens, NCI-N87, 72 h; 3 days incubation.
Description: as §1, §2, §3, §4, §5, §6, §7, §8, §9

For a further series, the target named is HER2 (ErbB2) (Homo sapiens (Human), UniProt P04626). The experiment in a line: In vitro enzyme activity, HER2 (ErbB2), [γ-33P]ATP filter assay. The class given is biochemical. The procedure:
The object of this test is to detect the in vitro inhibitory activity of the compound against HER1 (ErbB1), HER2 (ErbB2) and HER4 (ErbB4). The enzymes used in this test were human ErbB1, ErbB2 and ErbB4. Eurofins Pharma Discovery Service provided the activity detection method, and the results of the inhibitory activity of the tested compound against HER1, HER2 and HER4 were shown in Table 1.
Experimental Steps and Methods (96-Well Plate):
5-fold diluted tested compound buffer (5 μL), peptide substrate poly(Glu, Tyr) (4:1) (2.5 μL), ErbB (4-20 ng, 2.5 μL), MnCl2 (50 mM, 1.25 μL), dH2O (3.75 μL) and [γ-^33P]ATP (10 μL) were added, and incubated at 30° C. for 10 min. 3% phosphoric acid was added to terminate the reaction, and 10 μL of the specimen was transferred to Filtermate A. The filter was washed with 75 mM phosphoric acid for three times and methanol once, and transferred to a sealed plastic bag, and a scintillation fluid mixture (4 mL) was added, The intensity of the emitted photons was detected on the scintillation luminescence counter. The photon intensity of the enzyme sample was compared with the photon intensity of the internal control sample, and the level of photon intensity reflected the strength of the tyrosine kinase activity.

The target in the next series is CYP2C9 (Homo sapiens (Human), UniProt P11712). As to the kind of experiment: Inhibition of human liver microsomal cytochrome P450 isoenzyme CYP2C9. The class given is in vitro ADME. The settings on record: human liver microsomes. As for the experimental part: as §10
Chain of CYP2C9 (P11712 whole entry): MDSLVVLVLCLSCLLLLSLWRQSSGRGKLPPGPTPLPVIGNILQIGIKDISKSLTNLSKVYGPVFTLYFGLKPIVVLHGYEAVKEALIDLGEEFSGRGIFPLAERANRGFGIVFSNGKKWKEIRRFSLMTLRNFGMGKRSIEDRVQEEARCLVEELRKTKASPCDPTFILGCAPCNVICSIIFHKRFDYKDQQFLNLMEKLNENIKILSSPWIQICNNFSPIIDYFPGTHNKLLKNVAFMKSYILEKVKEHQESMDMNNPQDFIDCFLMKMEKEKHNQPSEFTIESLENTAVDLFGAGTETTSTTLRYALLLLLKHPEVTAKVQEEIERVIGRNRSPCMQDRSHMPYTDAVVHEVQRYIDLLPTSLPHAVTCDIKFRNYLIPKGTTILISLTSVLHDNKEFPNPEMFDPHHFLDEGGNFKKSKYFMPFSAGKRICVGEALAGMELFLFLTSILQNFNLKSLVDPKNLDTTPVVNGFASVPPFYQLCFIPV
Series [1] in a line: Pharmacokinetic properties in rats. The class given is in vivo. The conditions noted are these: male, SD. The procedure: The tested compound was dissolved in 10% NMP/10% polyethylene glycol-15-hydroxystearate/80% water, vortexed and sonicated to prepare a 2.5 mg/mL clear solution, which was filtered through a millipore filter for use. Three male SD rats were administered intravenously with the candidate compound solution at a dose of 5 mg/kg. The tested compound was dissolved in 10% polyethylene glycol-15-hydroxystearate/90% water (50 mM citrate buffer, pH 3.0), adjusted to pH of about 3.5, vortexed and sonicated to prepare a 5 mg/ml clear solution, which was filtered through a millipore filter for use. Three male SD rats were administered orally with the candidate compound solution at a dose of 50 mg/kg. The whole-blood for a certain period of time was collected to prepare plasma. The drug concentration was analyzed by the LC-MS/MS method, and the pharmacokinetic parameters were calculated by the Phoenix WinNonlin software (Pharsight, USA).

In another series the target is CYP3A4 (Homo sapiens (Human), UniProt P08684). The experiment in a line: Inhibition of human liver microsomal cytochrome P450 isoenzyme CYP3A4. The class given is in vitro ADME. The settings on record: human liver microsomes. The procedure: as §10
Chain of CYP3A4 (P08684 whole entry): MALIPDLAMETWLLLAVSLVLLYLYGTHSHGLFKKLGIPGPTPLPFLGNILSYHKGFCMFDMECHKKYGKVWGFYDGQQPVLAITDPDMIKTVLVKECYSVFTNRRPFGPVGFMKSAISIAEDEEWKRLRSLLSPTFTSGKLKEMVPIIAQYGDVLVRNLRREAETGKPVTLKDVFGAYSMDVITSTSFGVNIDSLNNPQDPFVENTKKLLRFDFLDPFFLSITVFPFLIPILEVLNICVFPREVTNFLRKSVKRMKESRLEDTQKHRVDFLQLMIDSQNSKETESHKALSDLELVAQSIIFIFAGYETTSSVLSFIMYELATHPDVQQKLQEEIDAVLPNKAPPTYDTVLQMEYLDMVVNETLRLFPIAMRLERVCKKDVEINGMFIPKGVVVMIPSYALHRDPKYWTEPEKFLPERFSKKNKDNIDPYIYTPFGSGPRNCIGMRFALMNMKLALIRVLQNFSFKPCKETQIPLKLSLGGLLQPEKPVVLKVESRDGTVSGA
In general terms: Microsomes from liver hold many membrane-bound enzymes, among them those of drug oxidation.

Usually IC50 stands for the concentration that gives 50% inhibition. Lower therefore signals greater potency. Usually clearance stands for a measure of how efficiently the substance is removed, as volume per time. Low values mean a low capacity for elimination, high ones a high capacity for elimination. What is called bioavailability is the share of a dose that reaches the circulation, judged against a reference dose that is usually intravenous. The AUC(0-inf) is the area under the concentration-time curve extrapolated to infinity. Read a high AUC(0-inf) as high exposure. A word on the AUC(0-t): it is exposure summed from dosing to a finite time, without extrapolation to infinity. Broadly, the half-life is the time in which the quantity being followed falls by half. Usually Cmax stands for the highest concentration seen after dosing. For orientation: Tmax means the time from dosing to the highest level.

Bounds are passed on as bounds.

Chain of HER2 (ErbB2) (P04626 23-1255): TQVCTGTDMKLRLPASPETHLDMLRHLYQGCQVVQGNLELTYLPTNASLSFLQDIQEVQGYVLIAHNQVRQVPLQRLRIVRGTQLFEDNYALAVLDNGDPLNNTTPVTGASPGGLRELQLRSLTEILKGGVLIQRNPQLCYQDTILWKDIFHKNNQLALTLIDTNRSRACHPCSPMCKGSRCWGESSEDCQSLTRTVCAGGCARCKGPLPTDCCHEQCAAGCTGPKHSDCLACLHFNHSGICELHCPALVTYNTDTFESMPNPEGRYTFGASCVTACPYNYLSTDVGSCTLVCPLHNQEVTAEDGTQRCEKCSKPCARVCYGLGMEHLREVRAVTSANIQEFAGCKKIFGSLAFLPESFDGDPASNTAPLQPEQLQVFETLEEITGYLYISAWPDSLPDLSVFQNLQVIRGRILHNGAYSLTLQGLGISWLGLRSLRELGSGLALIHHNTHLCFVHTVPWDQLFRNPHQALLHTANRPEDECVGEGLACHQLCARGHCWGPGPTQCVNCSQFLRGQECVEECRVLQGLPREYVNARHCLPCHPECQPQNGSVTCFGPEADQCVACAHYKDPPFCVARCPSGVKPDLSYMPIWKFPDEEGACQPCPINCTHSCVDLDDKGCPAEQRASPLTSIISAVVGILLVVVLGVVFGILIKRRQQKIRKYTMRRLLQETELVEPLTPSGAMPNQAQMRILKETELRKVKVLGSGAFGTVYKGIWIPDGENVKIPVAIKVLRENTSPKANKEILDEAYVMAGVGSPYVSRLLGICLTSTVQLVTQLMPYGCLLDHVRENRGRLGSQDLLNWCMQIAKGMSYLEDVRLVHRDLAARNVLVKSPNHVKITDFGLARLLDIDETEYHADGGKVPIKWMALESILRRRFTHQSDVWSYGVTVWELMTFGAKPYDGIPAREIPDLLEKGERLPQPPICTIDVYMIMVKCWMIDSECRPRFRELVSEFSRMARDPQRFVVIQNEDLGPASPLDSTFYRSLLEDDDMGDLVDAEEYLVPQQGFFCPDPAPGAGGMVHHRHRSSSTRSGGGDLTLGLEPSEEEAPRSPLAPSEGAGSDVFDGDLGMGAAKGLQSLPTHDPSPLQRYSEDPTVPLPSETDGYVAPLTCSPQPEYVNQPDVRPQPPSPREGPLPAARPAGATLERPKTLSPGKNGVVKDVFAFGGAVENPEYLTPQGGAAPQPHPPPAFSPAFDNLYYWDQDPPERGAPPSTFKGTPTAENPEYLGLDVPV

Consider `Cc1cc(Nc2ncnn3ccc(CN4CCC(N)CC4)c23)ccc1Oc1ccn2ncnc2c1` [Example 4], for which the IC50 was 23 nM in the series with BT-474 cell; 36100 nM on CYP2C19; 7 nM in the series with NCI-N87 cell; 12 nM against HER2 (ErbB2); greater than 50000 nM at CYP2C9; 32400 nM at CYP3A4. In addition, in series [1] (plasma, rat, IV 5 mg/kg), the clearance stood at 25.4 mL/min/kg. In series [1] (plasma, rat, IV 5 mg/kg, read-out: Vdss), the Vd was determined as 5.86 L/kg. The bioavailability in series [1] (plasma, rat, PO 50 mg/kg, read-out: F (oral bioavailability)) was 49.6%. Moreover, the AUC(0-inf) in series [1] (rat plasma, IV 5 mg/kg) was determined as 6.95 µM·h; in series [1] (rat plasma, PO 50 mg/kg), 34.9 µM·h. Further, the AUC(0-t) in series [1] (rat plasma, IV 5 mg/kg) turned out to be 6.91 µM·h; in series [1] (rat plasma, PO 50 mg/kg), 34.3 µM·h. In addition, the half-life in series [1] (rat plasma, IV 5 mg/kg) was 3.34 h; in series [1] (rat plasma, PO 50 mg/kg), 3.9 h. In series [1] (rat plasma, PO 50 mg/kg), the Cmax came to 3.63 µM. Besides, in series [1] (rat plasma, PO 50 mg/kg), the Tmax was determined as 3.33 h.
